The IC50 is the concentration that gives 50% inhibition.

This note sets out measurements from patent publication US20070049592A1, “Bis-aryl urea compounds and methods of use” (priority 2005, published 2007).

The subject of the assay is Human Umbilical Vein Endothelial cells. As to the kind of experiment: HUVEC proliferation assay (VEGF). The class given is cell-based. Conditions: VEGF-stimulated HUVEC proliferation. As for the experimental part:
Human Umbilical Vein Endothelial cells are purchased from Clonetics, Inc., as cryopreserved cells harvested from a pool of donors. These cells, at passage 1, are thawed and expanded in EBM-2 complete medium, until passage 2 or 3. The cells are trypsinized, washed in DMEM+10% FBS+antibiotics, and spun at 1000 rpm for 10 min. Prior to centrifugation of the cells, a small amount is collected for a cell count. After centrifugation, the medium is discarded, and the cells are resuspended in the appropriate volume of DMEM+10% FBS+antibiotics to achieve a concentration of 3×10^5 cells/mL. Another cell count is performed to confirm the cell concentration. The cells are diluted to 3×10^4 cells/mL in DMEM+10% FBS+antibiotics, and 100 μL of cells are added to a 96-well plate. The cells are incubated at 37° C. for 22 h.
Prior to the completion of the incubation period, compound dilutions are prepared. Five-point, five-fold serial dilutions are prepared in DMSO, at concentrations 400-fold greater than the final concentrations desired. 2.5 μL of each compound dilution are diluted further in a total of 1 mL DMEM+10% FBS+antibiotics (400× dilution). Medium containing 0.25% DMSO is also prepared for the 0 μM compound sample. At the 22 h timepoint, the medium is removed from the cells, and 100 μL of each compound dilution is added. The cells are incubated at 37° C. for 2-3 h.
During the compound pre-incubation period, the growth factors are diluted to the appropriate concentrations. Solutions of DMEM+10% FBS+antibiotics, containing either VEGF or bFGF at the following concentrations: 50, 10, 2, 0.4, 0.08, and 0 ng/mL are prepared. For the compound-treated cells, solutions of VEGF at 550 ng/mL or bFGF at 220 ng/mL for 50 ng/mL or 20 ng/mL final concentrations, respectively, are prepared since 10 μL of each will be added to the cells (110 μL final volume). At the appropriate time after adding the compounds, the growth factors are added. VEGF is added to one set of plates, while bFGF is added to another set of plates. For the growth factor control curves, the media on wells B4-G6 of plates 1 and 2 are replaced with media containing VEGF or bFGF at the varying concentrations (50-0 ng/mL). The cells are incubated at 37° C. for an additional 72 h.
At the completion of the 72 h incubation period, the medium is removed, and the cells are washed twice with PBS. After the second wash with PBS, the plates are tapped gently to remove excess PBS, and the cells are placed at −70° C. for at least 30 min. The cells are thawed and analyzed using the CyQuant fluorescent dye (Molecular Probes C-7026), following the manufacturer's recommendations. The plates are read on a Victor/Wallac 1420 workstation at 485 nm/530 nm (excitation/emission). Raw data is collected and analyzed using a 4-parameter fit equation in XLFit. IC50 values are then determined.

Regarding `CNc1cc(N(C)C(=O)Nc2cc(C(=O)Nc3ccc(C(C)C)c(C)c3)ccc2C)ncn1` [Example 19], the IC50 was under 5 µM. The compound `CNc1cc(N(C)C(=O)Nc2cc(C(=O)Nc3ccc4c(c3)N(C(C)=O)CC4(C)C)ccc2C)ncn1` [Example 21, N-(1-acetyl-3,3-dimethyl-2,3-dihydro-1H-indol-6-yl)-4-methyl-3-(((methyl(6-(methylamino)-4-pyrimidinyl)amino)carbonyl)amino)benzamide] came in with an IC50 of under 5 µM. For the compound `Cc1ccc(C(=O)Nc2cccc(C(C)C)c2)cc1NC(=O)N(CCCN1CCOCC1)c1ccncn1` [Example 22, 4-methyl-N-(3-(1-methylethyl)phenyl)-3-((((3-(4-morpholinyl)propyl)(4-pyrimidinyl)amino)carbonyl)amino)benzamide], the IC50 is under 5 µM.

In turn, `CNc1cc(N(C)C(=O)Nc2cc(C(=O)Nc3cccc(N(C)C)c3)ccc2C)ncn1` [Example 26, N-(3-(dimethylamino)phenyl)-4-methyl-3-((methyl(6-(methylamino)-4-pyrimidinyl)amino)carbonylamino)benzamide] registered an IC50 of under 5 µM. As for `CNc1ncnc(N(C)C(=O)Nc2cc(C(=O)Nc3ccc(C(C)(C)C)cc3)ccc2C)n1` [Example 27, N-(4-1,1-(dimethylethyl)phenyl)-4-methyl-3-(((methyl(4-(methylamino)-1,3,5-triazin-2-yl)amino)carbonyl)amino)benzamide], the figure is under 5 µM; as for `CNc1ncnc(N(C)C(=O)Nc2cc(C(=O)Nc3cccc(N(C)C)c3)ccc2C)n1` [Example 28], under 5 µM; as for `CNc1nccc(N(CCCN2CCOCC2)C(=O)Nc2cc(C(=O)Nc3cccc(C(C)C)c3)ccc2C)n1` [Example 29, 4-methyl-3-((((2-(methylamino)-4-pyrimidinyl) (3-(4-morpholinyl)propyl)amino)carbonyl)amino)-N-(3-(1-methylethyl)phenyl)benzamide], under 5 µM. In the case of `CNc1cc(N(C)C(=O)Nc2cc(C(=O)Nc3ccc4sc(C)nc4c3)ccc2C)ncn1` [Example 33, 4-methyl-N-(2-methyl-1,3-benzothiazol-5-yl)-3-(((methyl(6-(methylamino)-4-pyrimidinyl)amino)carbonyl)amino)benzamide], the IC50 was under 5 µM. `CNc1cc(N(C)C(=O)Nc2cc(C(=O)Nc3cc(C(F)(F)F)ccc3OCCN3CCCC3)ccc2C)ncn1` [Example 34, 4-methyl-3-(((methyl(6-(methylamino)-4-pyrimidinyl)amino)carbonyl)amino)-N-(2-((2-(1-pyrrolidinyl)ethyl)oxy)-5-(trifluoromethyl)phenyl)benzamide]: the IC50 was under 5 µM.

For the compound `CNc1ncnc(N(C)C(=O)Nc2cc(C(=O)Nc3ccc4sc(C)nc4c3)ccc2C)n1` [Example 35, 4-methyl-N-(2-methyl-1,3-benzothiazol-5-yl)-3-(((methyl(4-(methylamino)-1,3,5-triazin-2-yl)amino)carbonyl)amino)benzamide], the IC50 is under 5 µM.

Compound `CNc1ncnc(N(C)C(=O)Nc2cc(C(=O)Nc3cc(OC)cc(C(F)(F)F)c3)ccc2C)n1` [Example 36, 4-methyl-3-(((methyl(4-(methylamino)-1,3,5-triazin-2-yl)amino)carbonyl)amino)-N-(3-(methyloxy)-5-(trifluoromethyl)phenyl)benzamide] had an IC50 of under 5 µM. In turn, `CNc1ncnc(N(C)C(=O)Nc2cc(C(=O)Nc3cccc(C(F)(F)F)c3C)ccc2C)n1` [Example 37, 4-methyl-3-(((methyl(4-(methylamino)-1,3,5-triazin-2-yl)amino)carbonyl)amino)-N-(2-methyl-3-(trifluoromethyl)phenyl)benzamide] returned a half-inhibitory concentration (IC50) of under 5 µM. Compound `CNc1ncnc(N(C)C(=O)Nc2cc(C(=O)Nc3ccc(C(C)C)c(C)c3)ccc2C)n1` [Example 38, 4-methyl-3-(((methyl(4-(methylamino)-1,3,5-triazin-2-yl)amino)carbonyl)amino)-N-(3-methyl-4-(1-methylethyl)phenyl)benzamide] came in with an IC50 of under 5 µM. The compound `CNc1ncnc(N(C)C(=O)Nc2cc(C(=O)Nc3cccc(-c4ccccc4)c3)ccc2C)n1` [Example 39, N-(1,1′-biphenyl-3-yl)-4-methyl-3-(((methyl(4-(methylamino)-1,3,5-triazin-2-yl)amino)carbonyl)amino)benzamide] had an IC50 of under 5 µM. On to `CNc1cc(N(C)C(=O)Nc2cc(C(=O)Nc3ccc(Cl)cc3)ccc2C)ncn1` [Example 40, N-(4-chlorophenyl)-4-methyl-3-(((methyl(6-(methylamino)-4-pyrimidinyl)amino)carbonyl)amino)benzamide], for which the IC50 was under 5 µM. The result for `CNc1cc(N(C)C(=O)Nc2cc(C(=O)Nc3ccccc3)ccc2C)ncn1` [Example 41, 4-methyl-3-(((methyl(6-(methylamino)-4-pyrimidinyl)amino)carbonyl)amino)-N-phenylbenzamide] reads under 5 µM. In turn, `CCCCNC(=O)c1ccc(C)c(NC(=O)N(C)c2cc(NC)ncn2)c1` [Example 42, N-butyl-4-methyl-3-(((methyl(6-(methylamino)-4-pyrimidinyl)amino)carbonyl)amino)benzamide] gave an IC50 of under 5 µM.

For the compound `CNc1cc(N(C)C(=O)Nc2cc(C(=O)Nc3cc(C4CCCCC4)ccc3OC)ccc2C)ncn1` [Example 43, N-(5-cyclohexyl-2-(methyloxy)phenyl)-4-methyl-3-(((methyl(6-(methylamino)-4-pyrimidinyl)amino)carbonyl)amino)benzamide], the IC50 is under 5 µM. The compound `CNc1ncnc(N(C)C(=O)Nc2cc(C(=O)Nc3ccccc3)ccc2C)n1` [Example 44, 4-methyl-3-(((methyl(4-(methylamino)-1,3,5-triazon-2-yl)amino)carbonyl)amino)-N-phenylbenzamide] displayed an IC50 of under 5 µM.

`CNc1cc(N(C)C(=O)Nc2cc(C(=O)NCc3ccccc3)ccc2C)ncn1` [Example 45, 4-methyl-3-(((methyl(6-(methylamino)-4-pyrimidinyl)amino)carbonyl)amino)-N-(phenylmethyl) benzamide]: the IC50 is under 5 µM. The compound `COc1ccc(C2CCCCC2)cc1NC(=O)c1ccc(C)c(NC(=O)N(CCCN2CCOCC2)c2ccncn2)c1` [Example 46, N-(5-cyclohexyl-2-(methyloxy)phenyl)-4-methyl-3-((((3-(4-morpholinyl)propyl)(4-pyrimidinyl)amino)carbonyl)amino)benzamide] displayed an IC50 of under 5 µM.

On to `CNc1ncnc(N(C)C(=O)Nc2cc(C(=O)Nc3ccc(Cl)cc3)ccc2C)n1` [Example 47, N-(4-chlorophenyl)-4-methyl-3-(((methyl(4-(methylamino)-1,3,5-triazin-2-yl)amino)carbonyl)amino) benzamide], for which the IC50 was under 5 µM. `CCCCNC(=O)c1ccc(C)c(NC(=O)N(C)c2ncnc(NC)n2)c1` [Example 48, N-butyl-4-methyl-3-(((methyl(4-(methylamino)-1,3,5-triazin-2-yl)amino)carbonyl)amino)benzamide]: the IC50 was under 5 µM. `CNc1ncnc(N(C)C(=O)Nc2cc(C(=O)NCc3ccccc3)ccc2C)n1` [Example 49, 4-methyl-3-(((methyl(4-(methylamino)-1,3,5-triazin-2-yl)amino)carbonyl)amino)-N-(phenylmethyl) benzamide] gave an IC50 of under 5 µM. Take `CNc1nccc(N(CCCN2CCOCC2)C(=O)Nc2cc(C(=O)Nc3cc(C4CCCCC4)ccc3OC)ccc2C)n1` [Example 50, N-(5-cyclohexyl-2-(methyloxy)phenyl)-4-methyl-3-((((2-(methylamino)-4-pyrimidinyl)(3-(4-morpholinyl)propyl)amino)carbonyl)amino) benzamide]: the half-maximal inhibitory concentration (IC50) was under 5 µM.

Compound `CNC(=O)c1cc(N(C)C(=O)Nc2cc(C(=O)N3CCCc4ccc(C(F)(F)F)cc43)ccc2C)ccn1` [Example 71, N-methyl-4-(methyl(((2-methyl-5-((7-(trifluoromethyl)-3,4-dihydro-1(2H)-quinolinyl)carbonyl)phenyl)amino)carbonyl)amino)-2-pyridinecarboxamide] returned an IC50 of under 5 µM.
